Measured values from patent US8722648B2, “Liquid pharmaceutical form of alkylphosphocholine and method for preparing same” (priority 2009, dated 2014).
Converted amounts (≈) assume the structure as drawn.

Assay: Solubility of hexadecylphosphocholine in co-solvent systems at 25° C.
Assay type: physicochemical
Details: aqueous with cosolvent or surfactant or cyclodextrin
Description: The alkylphosphocholines are soluble in water, ethanol and methanol, but there are accurate bibliography data missing. […] For example, the solubility of alkylphosphocholines is sufficiency high in glycols and glycol ether. The improvement of alkylphosphocholines solubility is observed in propylene glycol-hexylene glycol-water mixtures as the solubility of alkylphosphocholines increases with increasing hexylene glycol concentration. The maximum is at 50% hexylene glycol level. […] The alkylphosphocholines solubility response is linear in the propylene glycol-concentration range 40÷60% in the co-solvent mixture. The addition of Transcutol P to the co-solvent mixture increased the solubility of alkylphosphocholines as a function of the concentration of Transcutol P, which may be due to a co-solvency effect. The functions of Transcutol P are simultaneously solubilizer and penetration enhancer to enable the active agent to cross the barrier of the stratum corneum.

solubility (hexylene glycol 22, propylene glycol 44, Transcutol P 2, water 32 % v/v): 153 mg/mL (≈ 375 mM) | solubility (co-solvent system (hexylene glycol/propylene glycol/water), hexylene glycol 22, propylene glycol 44, Transcutol P 0, water 34 % v/v): 138 mg/mL (≈ 339 mM) | solubility (co-solvent system (hexylene glycol/water), hexylene glycol 22, propylene glycol 0, Transcutol P 0, water 78 % v/v): 119 mg/mL (≈ 291 mM)
Compound: CCCCCCCCCCCCCCCCOP(=O)([O-])OCC[N+](C)(C)C [hexadecylphosphocholine]
